Test results reported in patent publication US6548543B1, “Remedies or preventives containing cyclopentenone compounds as the active ingredient” (Takara Shuzo Co., Ltd., priority 1998, dated 2003).
In brackets after ≈: the same amount, converted by molar mass. Numbered stars: 1 amine (or outer) side, 2 acyl side, 3 side chain; on linkers, the order of the positions; unused ones are H or OH. Bridge positions count the residues as written; N and C are the ends. Square brackets hold non-standard residues; d marks the D form. Peptide text beside a SMILES is read from it. I, II: the chains in the order shown. Actinocin(9to1) = Cc1c2oc3c(C)ccc(C(=O)[*:1])c3nc-2c(C(=O)[*:2])c(N)c1=O; NMeV = CN[C@H](C(=O)O)C(C)C; Sar = CNCC(=O)O

Assays:
[1] = system: HL-60 (ATCC CCL-240) cells; assay: Viability and apoptosis of HL-60 cells (Trypan Blue, optical microscope); type: cell-based; settings: 24 hours; for IC50: Homo sapiens, Trypan Blue, read-out: Viability50 (concentration that results in a viability of 50%)
Protocol: HL-60 (ATCC CCL-240) cells were cultured at 37° C. in RPMI 1640 medium (Bio Whittaker) containing 10% fetal calf serum (FCS; JRH) which had been treated at 56° C. for 30 minutes and suspended in RPMI 1640 medium at a concentration of 2.5×10^5 cells/5 ml.
10 μl each of solutions of diisobutyrylcyclopentenone, dimethoxyacetylcyclopentenone, dimethylfumarylcyclopentenone or dimethylmaleylcyclopentenone in 70% ethanol in water diluted to varying concentrations was added to 5 ml of the suspension. The mixtures were incubated at 37° C. for 24 hours in the presence of 5% Co2. 10 μl of aqueous actinomycin D (Sigma) solution (0.5 mg/ml), which is known as a reagent that induces apoptosis, was used in place of the sample and the mixture was incubated under the same conditions for confirmation.
The cultured cells were examined under an optical microscope.
Furthermore, a portion of the cells cultured as described above was stained with 0.4% Trypan Blue and examined under an optical microscope. The number of viable cells which were not stained and the number of dead cells which were stained blue were counted. The concentration of each of the samples that results in a viability of 50% (Viability50 μM) was determined.

[2] = system: 70-kDa heat shock protein; assay: Induction of 70-kDa heat shock protein in HL-60 cells (Western blot); type: cell-based; set-up: key to Degree of induction of 70-kDa heat shock protein: − means that no induction was observed; ± means that a slight induction was observed; + represents the induction level; ++: Increased number of + means increased induction; +++: Increased number of + means increased induction; settings: for Degree of induction of 70-kDa heat shock protein: HL-60, 6 hours
Protocol: (1) 5 ml of RPMI 1640 medium containing 10% fetal calf serum and HL-60 (ATCC CCL-240) cells at a concentration of 2×10^5 cells/ml was placed in each well of a 6-well plate. The plate was incubated at 37° C. for 24 hours in the presence of 5% CO2. Dipropionylcyclopentenone, diisobutyrylcyclopentenone or di-2-hexenoylcyclopentenone at a final concentration of 0, 0.63, 1.3, 2.5, 5, 10 or 20 μM was then added thereto. The incubation was continued for additional 6 hours.
After incubation, the cell number was counted. The cells were harvested by centrifugation, washed with PBS to prepare cells treated with one of the samples. Cells that were cultured in the same manner after heated at 45° C. for 10 minutes were also prepared.
These treated cells were used for SDS-PAGE according to the method as described in Molecular Cloning [Cold Spring Harbor Laboratory Press (1989)]. The treated cells were suspended in SDS-PAGE Sample buffer at a concentration of 2.5×10^6 cells/ml. The cell suspensions were treated at 100° C. for 10 minutes. 5 μl each of the cell suspensions was applied to two SDS-PAGE gels (5% stacking gel, 10% separation gel) and electrophoresed. One of the gels was subjected to Coomassie staining. The other gel was blotted onto a polyvinylidene difluoride transfer membrane (Immobilon™, Millipore, Cat. #IPVH000-10). The membrane was blocked at 4° C. overnight using Block Ace (Dainippon Pharmaceutical, Cat. #UK-B25).
The blocked membrane was reacted with a monoclonal antibody HSP72/73(Ab-1) (Oncogene Research Products, Cat. #HSP01), which specifically reacts with heat-inducible 70-kDa heat shock protein. The membrane was washed with TBS containing 0.05% Tween 20 followed by TBS. The membrane was then reacted with a peroxidase-conjugated secondary antibody HRP-Rabbit Anti-Mouse IgG (H+L) (Zymed Laboratories, Inc., Cat. #61-6520), and then washed as described above. The membrane reacted with the primary and secondary antibodies was reacted with a chemiluminol reagent Renaissance™ (Dupont NEN, Cat. #NEL-100). The membrane was then exposed to an X-ray film to confirm the induction of 70-kDa heat shock protein.

[3] = system: Candida albicans TIMM0136; assay: Antifungal activity, growth inhibition; type: cell-based; settings: 10 μl of solution at 100 or 500 μg/ml added to 100 μl culture, 30° C., 48 hours
Protocol: Dipropionylcyclopentenone, diisobutyrylcyclopentenone and di-2-hexenoylcyclopentenone were used to examine their antifungal activities against Candida albicans TIMM0136.
Candida albicans cells were cultured overnight in YNBG medium containing 0.67% Yeast Nitrogen Base (Difco) and 1.0% glucose (seed culture). The culture was then diluted with fresh Yeast Nitrogen Base medium to a concentration of 1×10^6 cells/ml. 100 μl of the dilution was dispensed into each well of a 96-well microtiter plate.
10 μl each of solutions of dipropionylcyclopentenone, diisobutyrylcyclopentenone or di-2-hexenoylcyclopentenone in 70% ethanol at a concentration of 100 μg/ml or 500 μg/ml, or 10 μl of 70% ethanol solution was added to the well. The plate was incubated without shaking at 30° C. for 48 hours (main culture).

[4] = system: λ-carrageenan pedal edema; assay: Carrageenan induced pedal edema; type: in vivo, Lewis rats; settings: rat, 3 hours after carrageenan
Protocol: Lewis rats (male, 9 weeks old, weighing about 250 g) were purchased from Seac Yoshitomi.
Rats were fasted from 18 hours before the start of the experiments. Dipropionylcyclopentenone, dihexanoylcyclopentenone, di-2-hexenoylcyclopentenone, diisobutyrylcyclopentenone or dibenzoylcyclopentenone dissolved in olive oil (Nacalai Tesque) was orally administered to 4 rats per group at 1 or 10 mg/10 ml/kg.
100 μl of 1% λ-carrageenan (Wako Pure Chemical Industries) suspension in saline (Otsuka Pharmaceutical) was injected into the sole of right paw of a rat 0.5 hour after the administration of test substance to induce pedal edema. The volume of the right foot of the rat was measured using an instrument for measuring pedal volume (Ugo Basile) 3 hours after the injection with carrageenan. The measurements were expressed as the rate of increase calculated based on the volume of the right foot of each rat measured before the administration with carrageenan.
FIG. 5 illustrate the relationship between the amount of cyclopentenone derivative administered and the rate of increase in edema in foot. The horizontal axis represents the dose […] and the vertical axis represents the rate of increase (%).

[5] = Single oral dose toxicity; type: in vivo; settings: mouse
Protocol: No toxicity is observed when a physiologically effective amount of the cyclopentenone derivative or an optical isomer thereof, or a salt thereof obtained according to the present invention is administered.

[6] = system: tumor necrosis factor (TNF)-α; assay: Endotoxin shock model, serum TNF-α after LPS; type: in vivo, CDF1 mice; settings: serum 1.5 hours after LPS
Protocol: (1) A model for endotoxin shock was constructed using CDF1 mice (8 weeks old, female, purchased from Japan SLC). Distilled water (control), or 10 mg/kg of diisopropionylcyclopentenone or diisobutyrylcyclopentenone was subcutaneously administered to a mouse. 20 μg of lipopolysaccharide (LPS; Sigma) was intraperitoneally administered to each mouse 30 minutes after the administration. Blood was collected from the mouse 1.5 hours after the administration with LPS. The amount of tumor necrosis factor (TNF)-α in a serum separated from the collected blood was measured using a commercially available ELISA kit (R&D). Each group consisted of 4 mice.
(2) A model for endotoxin shock was constructed by intraperitoneally administering 20 μg of LPS to a CDF1 mouse (8 weeks old, female). 30 or 100 mg/kg of dipropionylcyclopentenone or diisobutyrylcyclopentenone was orally administered 30 minutes before the administration with LPS. Blood was collected from the mouse 1.5 hours after the administration with LPS. The amount of TNF-α in a serum separated from the collected blood was measured using an ELISA kit. Each group consisted of 4 mice.

[7] = system: Ehrlich ascites carcinoma (EAC); assay: Ascitic cancer EAC, prolongation of survival; type: in vivo, ddY mouse; settings: 5 successive days; for 30-day survival number: groups of 8 mice
Protocol: (§1) (3) The carcinostatic activities of dipropionylcyclopentenone and diisobutyrylcyclopentenone against various ascitic cancers were examined using two types of cancer cells, Ehrlich ascites carcinoma (EAC) and Meth A, administered intraperitoneally or orally at a varying dose.
(§2) Dipropionylcyclopentenone or diisobutyrylcyclopentenone was intraperitoneally or orally administered for 5 successive days from the day after the transplantation with cancer cells. Injectable distilled water was administered to a control group in a similar manner. Average days of survival, prolongation rate and 30-day survival number were calculated for groups each consisting of 8 mice.

Meth A = assay: Ascitic cancer Meth A, prolongation of survival, 5 successive days; type: in vivo, BALB/c mouse; settings: intraperitoneal 10 mg/kg
Protocol: as §1, §2

[8] = oral, single dosage of 100 mg/kg

Compound: Cc1c2oc3c(C)ccc(C(=O)N[C@@H]4C(=O)N[C@H](C(C)C)C(=O)N5CCC[C@H]5C(=O)N(C)CC(=O)N(C)[C@@H](C(C)C)C(=O)O[C@@H]4C)c3nc-2c(C(=O)N[C@@H]2C(=O)N[C@H](C(C)C)C(=O)N3CCC[C@H]3C(=O)N(C)CC(=O)N(C)[C@@H](C(C)C)C(=O)O[C@@H]2C)c(N)c1=O [actinomycin D, reference compound] (I: T[dV]P[Sar][NMeV] / II: T[dV]P[Sar][NMeV]; ester I:1-I:C, II:1-II:C; linker I:N-II:N via Actinocin(9to1))
- Apoptosis-inducing / antiproliferation activity (condensation of nuclei, shrinking of cells, apoptotic bodies) ([1]; optical microscope): Condensation of nuclei, shrinking of cells and formation of apoptotic bodies were observed

Compound: di-2-hexenoylcyclopentenone
- Degree of induction of 70-kDa heat shock protein ([2]; 0.63 μM): ±
- Degree of induction of 70-kDa heat shock protein ([2]; 1.3 μM): +
- Degree of induction of 70-kDa heat shock protein ([2]; 2.5 μM): ++
- Degree of induction of 70-kDa heat shock protein ([2]; 5 μM): +++
- Degree of induction of 70-kDa heat shock protein ([2]; 10 μM): ±
- Degree of induction of 70-kDa heat shock protein ([2]; 20 μM): −
- Minimum growth inhibitory concentration [3]: 500 µg/mL
- Suppression of edema in foot (FIG. 5) ([4]; 1 mg/kg oral): significant suppression
- Suppression of edema in foot (FIG. 5) ([4]; 10 mg/kg oral): significant suppression
- Death after single oral administration [5, 8]: no death was observed

Compound: COC(=O)/C=C/C(=O)OC1C=CC(=O)C1OC(=O)/C=C/C(=O)OC (stereo not drawn) [Dimethylfumarylcyclopentenone, dimethylfumarylcyclopentenone]
- IC50 [1]: 2.9 µM

Compound: COCC(=O)OC1C=CC(=O)C1OC(=O)COC (stereo not drawn) [Dimethoxyacetylcyclopentenone, dimethoxyacetylcyclopentenone]
- IC50 [1]: 14 µM

Compound: CC(C)C(=O)OC1C=CC(=O)C1OC(=O)C(C)C (stereo not drawn) [Diisobutyrylcyclopentenone, diisobutyrylcyclopentenone]
- IC50 [1]: 8.8 µM
- Concentration at which ability to induce HSP70 is maximized [2]: 2.5 µM
- Concentration at which ability to induce HSP70 is observed [2]: 1.25 µM
- Degree of induction of 70-kDa heat shock protein ([2]; 0.63 μM): ±
- Degree of induction of 70-kDa heat shock protein ([2]; 1.3 μM): +
- Degree of induction of 70-kDa heat shock protein ([2]; 2.5 μM): +++
- Degree of induction of 70-kDa heat shock protein ([2]; 5 μM): +++
- Degree of induction of 70-kDa heat shock protein ([2]; 10 μM): +
- Degree of induction of 70-kDa heat shock protein ([2]; 20 μM): +
- MIC ([3]; Candida albicans, TIMM0136, read-out: Minimum growth inhibitory concentration): 500 µg/mL (≈ 1970 µM)
- Amount of TNF mean ± SE ([6]; 10 mg/kg subcutaneous 30 minutes before LPS): 3.39 ± 0.33 ng/mL
- TNF mean ± SE ([6]; 30 mg/kg oral 30 minutes before LPS): 3.92 ± 0.13 ng/mL
- TNF mean ± SE ([6]; 100 mg/kg oral 30 minutes before LPS): 2.48 ± 0.43 ng/mL
- Average days of survival ([7]; intraperitoneal 10 mg/kg): 17.0 days
- Prolongation rate ([7]; intraperitoneal 10 mg/kg): 136%
- 30-day survival number ([7]; intraperitoneal 10 mg/kg): 0
- Average days of survival ([7]; intraperitoneal 30 mg/kg): 25.3 days
- Prolongation rate ([7]; intraperitoneal 30 mg/kg): >202%
- 30-day survival number ([7]; intraperitoneal 30 mg/kg): 3
- Average days of survival ([7]; oral 30 mg/kg): 15.1 days
- Prolongation rate ([7]; oral 30 mg/kg): 121%
- 30-day survival number ([7]; oral 30 mg/kg): 0
- Average days of survival ([7]; oral 100 mg/kg): 20.9 days
- Prolongation rate ([7]; oral 100 mg/kg): 167%
- 30-day survival number ([7]; oral 100 mg/kg): 0
- Death after single oral administration ([5]; in vivo, po, 100 mg/kg): no death was observed
- Average days of survival (Meth A): 15.5 days
- Prolongation rate (Meth A): 132%
- 30-day survival number (Meth A; groups of 8 mice): 0

Compound: dihexanoylcyclopentenone
- Suppression of edema in foot (FIG. 5) ([4]; 1 mg/kg oral): significant suppression
- Suppression of edema in foot (FIG. 5) ([4]; 10 mg/kg oral): significant suppression
- Death after single oral administration [5, 8]: no death was observed
